Like-named read-outs stand apart in the source and are kept apart here.
Experiments:
Akt [1] = test: Inhibition of Akt phosphorylation in MKN-45 cells (Western blot); assay type: cell-based; conditions: Homo sapiens, Table 6, 0-1000 nM
Experimental: (§1) 6. Inhibition of Akt Phosphorylation in MKN-45 or NCI-H441 Cells:
(§2) Akt is a serine-threonine kinase and a downstream marker regulated by c-Met kinase via the PI3K pathway. Once phosphorylated, Akt regulates several end processes including cell survival and growth. Cells were treated with 0-1000 nM of test compounds, lysed, and the proteins separated on a 10% SDS-PAGE. Following separation, proteins were transferred onto a nitrocellulose membrane and detected by chemiluminescence after incubation with […] (primary) and rabbit anti-mouse Ab (secondary). Intensity of the bands was determined using ImageJ 1.42q (NIH, USA) and normalized to Actin (loading control).
(§3) Results: The results are provided below as IC50 values in Table 6.

c-Met kinase [2] = biological target: T1, c-Met kinase (Homo sapiens, UniProt P08581); test: Inhibition of c-Met kinase phosphorylation in NCI-H441 cells (cell based ELISA); conditions: Table 5, 1 h incubation
Experimental: 5. Inhibition of c-Met Kinase Phosphorylation in NCI-H441 Cells:
Inhibition of Met phosphorylation was determined using a cell based ELISA assay according to the following schedule: • Day 1: NCI-H441 cells were plated in 96-well plates in complete growth medium. • Day 2: Inhibitors at the desired concentration were added to the plates, incubated for 1 h and lysed subsequently. Lysates were transferred to NUNC Maxisorp plates coated with anti-cMet receptor antibody. Phopho-tyrosine mAb and HRP-lined anti-mouse IgG were used as primary and secondary antibodies respectively. Optical density was measured on a microplate reader (BMG Labtech., Germany) at […]. […] Results: The results are given below in Table 5 as IC50 values.

[3] = biological target: T2, human recombinant Met kinase (Homo sapiens, UniProt P08581); test: Colorimetric determination of c-Met kinase activity (HTScan Met Kinase Assay Kit); assay type: biochemical; conditions: Table 4A; 100 nM (cells without *); read-out: c-Met Enzyme % inhibition @ 100 nM
T2 construct: purchased Cell Signalling Technology, Beverly, Mass
Method in brief: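 Human recombinant Met kinase was preincubated with compound for 5 min at room temperature, then reacted with ATP and biotinylated peptide for 30 min; EDTA stop. Phosphopeptide captured on streptavidin and detected with phospho-tyrosine mAb and europium anti-mouse IgG by time-resolved fluorescence (340/615 nm). Reported as % inhibition or IC50.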

c-Met kinase [4] = biological target: T1, c-Met kinase; test: Inhibition of c-Met kinase phosphorylation in MKN-45 cells (cell based ELISA); set-up: endogenous in cells; host or cells: MKN-45; conditions: Table 4D, 1 h incubation
Experimental: MKN45 cells are a prototype of “c-Met addicted” cells having constitutively activated c-Met kinase similar to that observed in sub-sects of gastric or hepatocellular cancer patients with dysregulated c-Met kinase activity. Inhibition of Met phosphorylation was determined using a cell based ELISA assay according to the following schedule: • Day 1: MKN-45 cells were plated in 96-well plates in complete growth medium. • Day 2: Inhibitors at the desired concentration were added to the plates and incubated for 1 h and lysed subsequently. Lysates were transferred to NUNC Maxisorp plates coated with anti-cMet receptor antibody. Phopho-tyrosine mAb and HRP-lined anti-mouse IgG were used as primary and secondary antibodies respectively. Optical density was measured on a microplate reader (BMG Labtech., Germany) at […]. Inhibition of c-Met phosphorylation in this cell line indicates a therapeutic potential for test compounds in patients diagnosed with cancers caused by aberrant c-Met kinase signalling. Results: The results are provided above in Table 4D as IC50 values.

MDA-MB-231 cells = test: Inhibition of HGF-induced cell proliferation in MDA-MB-231 cells (MTT); assay type: cell-based; conditions: Homo sapiens, Table 8, HGF (50 ng/ml)
Experimental: 8. Inhibition of HGF-Induced Met Phosphorylation in MDA-MB-231 Cells:
MDA-MB-231 is a breast cancer cell line having a high level of c-Met expression. Activation of Met kinase in these cells occurs only after the addition of its natural ligand, Hepatocyte Growth Factor (HGF). Upon binding to the extracellular domain of the enzyme, it triggers phosphorylation of tyrosine residues and regulates several downstream events such as cell proliferation. Cell proliferation assays were carried out using the high Met expressing cell line (MDA-MB-231) according to the following schedule: • Day 1: Cells were plated in 96-well plates in complete growth medium. • Day 2: Media was replaced with starvation medium containing 0.04% BSA. • Day 3: Inhibitors at the desired concentrations and HGF (50 ng/ml) were added. • Day 5: Cell viability was determined using the 3-[4,5-dimethylthiazol-2-yl]-2,5-diphenyltetrazolium bromide (MTT) dye reduction test. […] Results: The results are provided below in Table 8 as IC50 values.

MKN-45 cells = test: Induction of apoptosis in MKN-45 cells (caspase-3 activity); assay type: cell-based, human; conditions: percentage induction @ 3 μM; caspase-3, MKN-45 cells, 24 h; percent of maximum response
Experimental: 7. Induction of Apoptosis in MKN-45 Cells: I
Induction of Caspase 3 was measured fluorimetrically. Cells were incubated with desired concentrations of the compound for 24 h. After incubation, cells were harvested and counted. An equal number of viable cells per well (0.3×10^6 cells) were used for determination of caspase-3 activity. Increase in apoptosis manifested by an elevation in caspase-3 levels was determined using a Caspase-3 kit from Millipore. Data are expressed as a percent of the maximum response (100%).
Results: The results are provided below as percentage induction @ 3 μM in Table 7.

Akt [5] = test: Inhibition of Akt phosphorylation in NCI-H441 cells (Western blot); assay type: cell-based; conditions: Homo sapiens, Table 6, 0-1000 nM
Experimental: as §1, §2, §3

[6] = biological target: T2, human recombinant Met kinase; test: Colorimetric determination of c-Met kinase activity (HTScan Met Kinase Assay Kit); assay type: biochemical; conditions: read-out: c-Met Enzyme IC50
MKN-45 = test: Inhibition of MKN-45 proliferation (MTT); assay type: cell-based, human; conditions: MKN-45 proliferation; for inhibition at 0.1 µM / GI50: Homo sapiens; for inhibition at 0.1 µM: read-out: MKN45 % inhibition @ 100 nM; for GI50: read-out: MKN45 GI50
Method in brief: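 High-Met human gastric adenocarcinoma MKN-45 cells plated on day 1 and exposed to compound from day 2. Viability measured by MTT dye reduction on day 5; output given as % inhibition at 100 nM and GI50.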

T2 sequence (P08581 25-1390): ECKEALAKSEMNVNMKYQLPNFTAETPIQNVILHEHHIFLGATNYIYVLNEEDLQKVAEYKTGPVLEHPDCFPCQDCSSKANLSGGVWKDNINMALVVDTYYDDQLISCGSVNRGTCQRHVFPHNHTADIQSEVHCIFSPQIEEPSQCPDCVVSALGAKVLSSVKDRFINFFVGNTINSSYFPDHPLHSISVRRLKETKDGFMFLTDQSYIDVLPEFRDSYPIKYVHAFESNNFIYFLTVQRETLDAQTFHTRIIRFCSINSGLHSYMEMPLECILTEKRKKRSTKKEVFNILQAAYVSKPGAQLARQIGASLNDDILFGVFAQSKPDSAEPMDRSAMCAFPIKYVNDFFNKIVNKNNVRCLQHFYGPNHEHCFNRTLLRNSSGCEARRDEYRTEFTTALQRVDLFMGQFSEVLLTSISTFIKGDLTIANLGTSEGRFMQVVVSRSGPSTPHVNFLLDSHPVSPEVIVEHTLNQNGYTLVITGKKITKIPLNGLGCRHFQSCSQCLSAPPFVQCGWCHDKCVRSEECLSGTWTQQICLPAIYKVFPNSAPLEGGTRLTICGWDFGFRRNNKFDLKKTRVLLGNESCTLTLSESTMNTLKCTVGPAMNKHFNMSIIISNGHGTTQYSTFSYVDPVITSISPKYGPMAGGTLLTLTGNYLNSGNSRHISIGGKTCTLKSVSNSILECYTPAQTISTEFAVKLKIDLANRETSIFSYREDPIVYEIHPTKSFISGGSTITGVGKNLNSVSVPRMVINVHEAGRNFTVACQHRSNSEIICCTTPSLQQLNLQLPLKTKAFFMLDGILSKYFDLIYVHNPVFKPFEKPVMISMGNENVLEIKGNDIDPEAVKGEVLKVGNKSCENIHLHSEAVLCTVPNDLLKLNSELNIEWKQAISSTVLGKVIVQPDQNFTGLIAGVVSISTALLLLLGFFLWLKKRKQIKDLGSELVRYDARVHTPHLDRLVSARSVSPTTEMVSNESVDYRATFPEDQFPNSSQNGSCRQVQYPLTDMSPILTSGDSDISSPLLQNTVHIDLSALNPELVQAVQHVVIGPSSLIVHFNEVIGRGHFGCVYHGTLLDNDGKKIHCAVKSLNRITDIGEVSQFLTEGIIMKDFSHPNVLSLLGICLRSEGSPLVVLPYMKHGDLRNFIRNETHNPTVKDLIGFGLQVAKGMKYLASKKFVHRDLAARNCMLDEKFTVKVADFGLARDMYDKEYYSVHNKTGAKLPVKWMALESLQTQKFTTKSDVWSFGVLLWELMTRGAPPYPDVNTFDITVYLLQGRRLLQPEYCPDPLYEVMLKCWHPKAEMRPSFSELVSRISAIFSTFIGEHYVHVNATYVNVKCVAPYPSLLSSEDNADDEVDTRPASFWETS
T1 sequence (P08581 25-1390): as above

| Structure (SMILES) | IC50 (Akt [1]) [nM] | IC50 (c-Met kinase [2]) [nM] | inhibition at 0.1 µM [3] [%] | IC50 (c-Met kinase [4]) [nM] | IC50 (MDA-MB-231 cells) [nM] | IC50 (Akt [5]) [nM] | IC50 ([6]; Table 4A) [nM] | GI50 (MKN-45; MKN-45, Table 4A) [nM] | melting point [°C] | IC50 ([6]; Table 4C) [nM] | GI50 (MKN-45; MKN-45, Table 4C) [nM] | % induction of caspase-3 activity (MKN-45 cells) | inhibition at 0.1 µM (MKN-45; MKN-45, Table 4A, 100 nM) [%] | MKN45 % inhibition @ 100 nM (MKN-45; Table 4A, 100 nM, 0.1 µM) | inhibition at 0.1 µM (MKN-45; MKN-45, Table 4C, 100 nM) [%] |
| --- | --- | --- | --- | --- | --- | --- | --- | --- | --- | --- | --- | --- | --- | --- | --- |
| Cc1cc(-c2ccc3nnn(Cc4ccc5ncccc5c4)c3n2)ccc1C(=O)NOCC(C)(C)O [Example 33, N-(2-hydroxy-2-methylpropoxy)-2-methyl-4-(3-(quinolin-6-ylmethyl)-3H-[1,2,3]triazolo[4,5-b]pyridin-5-yl)benzamide] | 25 to 50 | ≤ 10 | 75 to 100 | 10 to 25 | 10 to 50 | ≤ 10 | – | – | – | – | – | A (A is ≧75) | – | – | – |
| CC(C)(O)CONC(=O)c1ccc(-c2ccc3nnn(Cc4ccc5ncccc5c4)c3n2)cc1Cl [Example 30, 2-chloro-N-(2-hydroxy-2-methylpropoxy)-4-(3-(quinolin-6-ylmethyl)-3H-[1,2,3]triazolo[4,5-b]pyridin-5-yl) benzamide] | 25 to 50 | 10 to 25 | 75 to 100 | 25 to 50 | < 10 | ≤ 10 | 25 to 50 | 25 to 50 | – | – | – | B (B is <75 and ≧50) | 75 to 100 | – | – |
| C[C@H](O)CONC(=O)c1ccc(-c2ccc3nnn(Cc4ccc5ncccc5c4)c3n2)cc1Cl [Example 31, (S)-2-chloro-N-(2-hydroxypropoxy)-4-(3-(quinolin-6-ylmethyl)-3H-[1,2,3]triazolo[4,5-b]pyridin-5-yl) benzamide] | – | – | 50 to 75 | ≤ 10 | – | – | – | 25 to 50 | – | – | – | – | 50 to 75 | – | – |
| O=C(NOCCO)c1ccc(-c2ccc3nnn(Cc4ccc5ncsc5c4)c3n2)cc1F [Example 20, 4-(3-(benzo[d]thiazol-6-ylmethyl)-3H-[1,2,3]triazolo[4,5-b]pyridin-5-yl)-2-fluoro-N-(2-hydroxyethoxy)benzamide] | – | – | 75 to 100 | – | – | – | 25 to 50 | 50 to 100 | 164 to 166 | – | – | – | 75 to 100 | – | – |
| NC(=O)c1c(F)cc(-c2ccc3nnn(Cc4ccc5ncsc5c4)c3n2)cc1F [Example 1006, 4-(3-(benzo[d]thiazol-6-ylmethyl)-3H-[1,2,3]triazolo[4,5-b]pyridin-5-yl)-2,6-difluorobenzamide] | 25 to 50 | ≤ 10 | – | 25 to 50 | 10 to 50 | ≤ 10 | – | – | – | 25 to 50 | 25 to 50 | B (B is <75 and ≧50) | – | – | 75 to 100 |
| C[C@@H](O)CONC(=O)c1ccc(-c2ccc3nnn(Cc4ccc5ncccc5c4)c3n2)cc1Cl [Example 32, (R)-2-chloro-N-(2-hydroxypropoxy)-4-(3-(quinolin-6-ylmethyl)-3H-[1,2,3]triazolo[4,5-b]pyridin-5-yl) benzamide] | – | – | 75 to 100 | ≤ 10 | – | – | 25 to 50 | 25 to 50 | – | – | – | – | 75 to 100 | – | – |

Continued, in another order:

| IC50 (Akt [1]) [nM] | IC50 (c-Met kinase [2]) [nM] | inhibition at 0.1 µM [3] [%] | IC50 (c-Met kinase [4]) [nM] | IC50 (MDA-MB-231 cells) [nM] | IC50 (Akt [5]) [nM] | IC50 ([6]; Table 4A) [nM] | GI50 (MKN-45; MKN-45, Table 4A) [nM] | melting point [°C] | IC50 ([6]; Table 4C) [nM] | GI50 (MKN-45; MKN-45, Table 4C) [nM] | Structure (SMILES) | % induction of caspase-3 activity (MKN-45 cells) | inhibition at 0.1 µM (MKN-45; MKN-45, Table 4A, 100 nM) [%] | MKN45 % inhibition @ 100 nM (MKN-45; Table 4A, 100 nM, 0.1 µM) | inhibition at 0.1 µM (MKN-45; MKN-45, Table 4C, 100 nM) [%] |
| --- | --- | --- | --- | --- | --- | --- | --- | --- | --- | --- | --- | --- | --- | --- | --- |
| 50 to 250 | 10 to 25 | 75 to 100 | 25 to 50 | – | 10 to 25 | 25 to 50 | 50 to 100 | – | – | – | O=C(NOCCO)c1c(F)cc(-c2ccc3nnn(Cc4cc5cccnc5cc4F)c3n2)cc1F [Example 9, 2,6-difluoro-4-(3-((7-fluoroquinolin-6-yl)methyl)-3H-[1,2,3]triazolo[4,5-b]pyridin-5-yl)-N-(2-hydroxyethoxy)benzamide] | A (A is ≧75) | 75 to 100 | – | – |
| 50 to 250 | 25 to 50 | 75 to 100 | 50 to 500 | – | ≤ 10 | 25 to 50 | 50 to 100 | – | – | – | O=C(NOCCO)c1c(F)cc(-c2ccc3nnn(Cc4ccc5ncccc5c4)c3n2)cc1F [Example 8, 2,6-difluoro-N-(2-hydroxyethoxy)-4-(3-(quinolin-6-ylmethyl)-3H-[1,2,3]triazolo[4,5-b]pyridin-5-yl)benzamide] | C (C is <50 and ≧25) | 25 to 50 | – | – |
| ≤ 10 | ≤ 10 | 75 to 100 | ≤ 10 | – | ≤ 10 | 25 to 50 | 25 to 50 | – | – | – | O=C(NOCCO)c1ccc(-c2ccc3nnn(Cc4cc5cccnc5cc4F)c3n2)cc1Cl [Example 7, 2-chloro-4-(3-((7-fluoroquinolin-6-yl)methyl)-3H-[1,2,3]triazolo[4,5-b]pyridin-5-yl)-N-(2-hydroxyethoxy)benzamide] | A (A is ≧75) | 75 to 100 | – | – |
| – | – | 75 to 100 | – | – | – | 25 to 50 | 25 to 50 | 200 to 203 | – | – | O=C(NOCCO)c1ccc(-c2ccc3nnn(Cc4ccc5ncccc5c4)c3n2)cc1F [Example 10, 2-fluoro-N-(2-hydroxyethoxy)-4-(3-(quinolin-6-ylmethyl)-3H-[1,2,3]triazolo[4,5-b]pyridin-5-yl)benzamide] | – | 75 to 100 | – | – |
| 10 to 25 | ≤ 10 | – | 25 to 50 | < 10 | ≤ 10 | 25 to 50 | 25 to 50 | – | – | – | O=C(NOCCO)c1ccc(-c2ccc3nnn(Cc4ccc5ncccc5c4)c3n2)cc1Cl [Example 6, 2-chloro-N-(2-hydroxyethoxy)-4-(3-(quinolin-6-ylmethyl)-3H-[1,2,3]triazolo[4,5-b]pyridin-5-yl)benzamide] | B (B is <75 and ≧50) | 75 to 100 | – | – |
| 10 to 25 | ≤ 10 | 75 to 100 | 25 to 50 | < 10 | ≤ 10 | 25 to 50 | 25 to 50 | – | – | – | Cc1cc(-c2ccc3nnn(Cc4ccc5ncccc5c4)c3n2)ccc1C(=O)NOCCO [Example 25, N-(2-hydroxyethoxy)-2-methyl-4-(3-(quinolin-6-ylmethyl)-3H-[1,2,3]triazolo[4,5-b]pyridin-5-yl)benzamide] | B (B is <75 and ≧50) | – | A (A= ≧75 to 100%) | – |

From patent US9815831B2, “3,5-disubstituted-3H-imidazo[4,5-B]pyridine and 3,5-disubstituted-3H-[1,2,3]triazolo[4,5-B] pyridine compounds as modulators of c-Met protein kinases” (Rhizen Pharmaceuticals SA, priority 2012, dated 2017)
